In patent US20240344026A1, “Methods to Activate Gamma Delta T cells for Antibody Dependent Cellular Cytotoxicity” (Intellistem, Inc., priority 2023, published 2024):

What was measured:
Format in all cases: cell-based
tumor cell line Daudi = assay: Cytotoxicity assay
Description: To directly determine the anti-tumor activity of Gamma Delta T cells against the tumor cell line Daudi, the present inventors performed a cytotoxicity assay on day 10 of cultivation comparing the prior art (R10F) and preferred embodiment of the present invention (Ko-Op). For this, Alpha Beta T cells and NKp46+ cells were paramagnetically depleted from the cell suspension in order to isolate the Gamma Delta T cells on day 10. The cell composition before and after depletion is shown FIG. 2A.
The present inventors next performed the cytotoxicity assay with the different cultivated MNC. To be able to compare the methods more clearly, the present inventors calculated the lytic units per 10^6 effector cells.

[1] = tested on: cytoplasmic perforin of Gamma Delta T cells; assay: Cytoplasmic perforin staining, flow cytometry
Procedure: To evaluate the activity of stimulated Gamma Delta T cells, cytoplasmic perforin and IFN γ were stained every three to four days and Δ MFI was measured by flow cytometry.

Gamma Delta T cells [2] = assay: Differentiation of Gamma Delta T cells by CD45RA and CD27 expression
Description: The present inventors divided the T cells into naive, central memory, effector memory and terminally differentiated Gamma Delta T cells based on expression of CD45RA and CD27.

Gamma Delta T cells [3] = assay: Proliferation rate of Gamma Delta T cells on ex vivo stimulation of MNC; settings: changed stimulant vs standard protocol; zoledronate pulse 100 μM 4 h (day 7); IL-15 10 ng/ml, IL-2 1000 U/ml
Procedure: Cell cultures were performed with peripheral blood obtained from healthy adult donors. Peripheral blood mononuclear cells (MNC) were isolated by density gradient centrifugation with Biocoll (Biochrom, Darmstand, Germany/Bio&SELL, Feucht, Germany). MNC were incubated up to 17 days at 37° C. and 5% CO2.
For cultivation, MNC at a concentration of 5.0E+05/ml were cultured in 50 ml cell culture flasks (Sarstedt, Nuembrecht, Germany) using medium consisting of OpTmizer™ CTSTM T-Cell Expansion Basal Medium, OpTmizer™ CTSTM T-Cell Expansion Supplement (Gibco/Thermo Fisher, Waltham, USA) and 1% 200 mM L-Glutamin. 10 μM Zoledronate were added on day 0 and 1000 U/ml IL-2 were added on day 2. On days 4, 7, 9, 11 and 14 half of the medium was removed and replaced by fresh medium containing 2× 1000 U/ml IL-2 for a final concentration of 1000 U/ml. Cells were not split at any time. From day 4 on cell culture flasks were shaken at 250 rpm. For pulsing zoledronate, 100 μM Zol were added on day 0. […]
Cell counts and cell viability were established using a hemocytometer and the trypan blue exclusion method. Cell count and proliferation rate of Gamma Delta T cells was calculated on the basis of the cell number of the MNC and the percentage of Gamma Delta T cells on the MNC determined by flow cytometry. […]

[4] = changed stimulant vs standard protocol, without combination of modifications
[5] = changed stimulant vs standard protocol
[6] = IL-15 instead of IL-2, combined with pulsing zoledronate

O=P(O)(O)C(O)(Cn1ccnc1)P(=O)(O)O [zoledronate, reference compound]
lytic units per 10^6 effector cells (tumor cell line Daudi; without therapeutic antibodies, vs standard protocol): significant increase
cytoplasmic perforin [1, 4]: did not lead to any significant change
percentage of central memory Gamma Delta T cells (TCM) (Gamma Delta T cells [2]; [5]): more TCM
proliferation rate of Gamma Delta T cells (Gamma Delta T cells [3]): significant lower proliferation rate

IL-15: interleukin used at 10 ng/ml in place of IL-2
lytic units per 10^6 effector cells (tumor cell line Daudi; with zoledronate pulse, without antibody, vs zoledronate pulse without modification of the interleukins): an increase
cytoplasmic perforin ([1]; IL-15 instead of IL-2, with zoledronate pulse): significant reduction
cytoplasmic perforin [1, 4]: significant reduction
percentage of effector Gamma Delta T cells (TEM) (Gamma Delta T cells [2]; IL-15 instead of IL-2): reduced percentage
percentage of central memory Gamma Delta T cells (TCM) (Gamma Delta T cells [2]; [6]): elevated percentage
percentage of effector Gamma Delta T cells (TEM) (Gamma Delta T cells [2]; [6]): reduced percentage
percentage of central memory Gamma Delta T cells (TCM) (Gamma Delta T cells [2]; [5]): elevated percentage
proliferation rate of Gamma Delta T cells (Gamma Delta T cells [3]): significantly lower
